The assay has as its target T1, Human M4 (Homo sapiens, UniProt P08173).
T1 construct: expressed in transfected cells
T1 sequence (P08173 1-479): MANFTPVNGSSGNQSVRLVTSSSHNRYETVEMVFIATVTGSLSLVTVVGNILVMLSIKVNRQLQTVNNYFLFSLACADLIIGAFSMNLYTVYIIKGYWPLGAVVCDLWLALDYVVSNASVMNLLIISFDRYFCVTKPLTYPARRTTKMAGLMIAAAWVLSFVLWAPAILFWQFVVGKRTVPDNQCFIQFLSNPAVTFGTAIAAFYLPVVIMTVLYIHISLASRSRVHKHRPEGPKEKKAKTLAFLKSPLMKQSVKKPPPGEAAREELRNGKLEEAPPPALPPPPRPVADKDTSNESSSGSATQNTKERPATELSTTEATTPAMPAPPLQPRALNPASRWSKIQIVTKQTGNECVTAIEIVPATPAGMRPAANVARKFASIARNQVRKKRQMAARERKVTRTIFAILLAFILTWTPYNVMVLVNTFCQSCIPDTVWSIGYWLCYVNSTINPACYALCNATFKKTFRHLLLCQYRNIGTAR
Briefly: mAChR M4 cell-based functional assay (calcium flux, potentiation of EC20 acetylcholine response), hM4-Gqi5 CHO-K1 cells. The conditions noted are these: Table 4; for Emax at 30 µM: CHO-K1, Human M4, % ACh maximum at 30 μM, read-out: Emax (% ACh maximum at 30 μM); for EC50: potentiation of EC20 acetylcholine response, calcium flux, CHO-K1 cells, read-out: Human M4 EC50. In short, it runs like this: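 Positive allosteric modulation was scored as a concentration-dependent rise in the response to an EC20 dose of acetylcholine, added 144 s after the compound. Human M4-Gqi5 CHO-K1 cells carried Fluo-4 dye, and compounds ran as 11-point, 3-fold dilution series. EC50 and Emax came from four-parameter logistic fits of the FDSS fluorescence-ratio traces.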
In general terms: A change in cytosolic calcium serves as a functional read-out for many receptors and channels.

In general, Emax refers to the size of the effect at its maximum, as opposed to the concentration needed. As usually defined, the EC50 is the concentration that produces a half-maximal response. `FC(F)(F)c1cnc2c(c1)CN(c1nn3c(C(F)(F)F)nnc3c3ccccc13)CC2` [Compound 338, 3-(trifluoromethyl)-6-(3-(trifluoromethyl)-7,8-dihydro-1,6-naphthyridin-6(5H)-yl)-[1,2,4]triazolo[3,4-a]phthalazine]: the Emax at 30 µM was determined as 84% and the EC50 was 5400 nM.
In the same order, the values of `CCOC(=O)c1c(C)nc2c(C)c(C)c(N3CCc4ncc(C(F)(F)F)cc4C3)nn12` [Compound 339, Ethyl 2,7,8-trimethyl-6-(3-(trifluoromethyl)-7,8-dihydro-1,6-naphthyridin-6(5H)-yl)imidazo[1,2-b]pyridazine-3-carboxylate] are 67% and 1900 nM.
The like results for `Cc1cc2cncn2nc1N1CCc2ncc(C(F)(F)F)cc2C1` [Compound 340, 6-(3-methylimidazo[1,5-b]pyridazin-2-yl)-3-(trifluoromethyl)-5,6,7,8-tetrahydro-1,6-naphthyridine] were, in that order, 84% and 431 nM.
The like results for `Cc1cc2cnc(C)n2nc1N1CCc2ncc(C(F)(F)F)cc2C1` [Compound 341, 6-(3,7-dimethylimidazo[1,5-b]pyridazin-2-yl)-3-(trifluoromethyl)-5,6,7,8-tetrahydro-1,6-naphthyridine] were, in that order, 63% and 521 nM.
As for `Cc1cc2cncn2nc1N1CCc2ncc(-c3cn(C)nc3C)cc2C1` [Compound 342, 3-(1,3-dimethyl-1H-pyrazol-4-yl)-6-(3-methylimidazo[1,5-b]pyridazin-2-yl)-5,6,7,8-tetrahydro-1,6-naphthyridine], the Emax at 30 µM was 81% and the 50% effective concentration (EC50) came to 492 nM.
As for `c1cc2n(n1)CCCN2c1cnc2c(c1)CN(c1nn3cnnc3c3c1CCCC3)CC2` [Compound 344, 6-(3-(6,7-dihydropyrazolo[1,5-a]pyrimidin-4(5H)-yl)-7,8-dihydro-1,6-naphthyridin-6(5H)-yl)-7,8,9,10-tetrahydro-[1,2,4]triazolo[3,4-a]phthalazine], the Emax at 30 µM came to 73% and the EC50 amounted to 547 nM.
The like results for `FC(F)(F)c1cnc2c(c1)CN(c1nn3cnnc3c3c1CCCC3)CC2` [Compound 345, 6-(3-(trifluoromethyl)-7,8-dihydro-1,6-naphthyridin-6(5H)-yl)-7,8,9,10-tetrahydro-[1,2,4]triazolo[3,4-a]phthalazine] were, in that order, 63% and 1460 nM.
Regarding `Cc1c(C2CC2)c(N2CCc3ncc(C(F)(F)F)cc3C2)nn2cnnc12` [Compound 346, 6-(7-Cyclopropyl-8-methyl-[1,2,4]triazolo[4,3-b]pyridazin-6-yl)-3-(trifluoromethyl)-5,6,7,8-tetrahydro-1,6-naphthyridine], the Emax at 30 µM worked out at 70% and the EC50 stood at 2110 nM.
In the same order, the values of `Cc1ccc(-c2cnc3c(c2)CN(c2nn4cnnc4c(C)c2C2CC2)CC3)cn1` [Compound 347, 6-(7-cyclopropyl-8-methyl-[1,2,4]triazolo[4,3-b]pyridazin-6-yl)-3-(6-methylpyridin-3-yl)-5,6,7,8-tetrahydro-1,6-naphthyridine] are 61% and 788 nM.
For `Cc1c(C2CC2)c(N2CCc3ncc(N4CCO[C@H](C)C4)cc3C2)nn2cnnc12` [Compound 348, (R)-4-(6-(7-cyclopropyl-8-methyl-[1,2,4]triazolo[4,3-b]pyridazin-6-yl)-5,6,7,8-tetrahydro-1,6-naphthyridin-3-yl)-2-methylmorpholine], the maximal response (Emax) at 30 µM turned out to be 66% and the EC50 turned out to be 1850 nM.
For the compound `COCc1c(N2CCc3ncc(C(F)(F)F)cc3C2)nn2cnnc2c1C` [Compound 349, 6-(7-(Methoxymethyl)-8-methyl-[1,2,4]triazolo[4,3-b]pyridazin-6-yl)-3-(trifluoromethyl)-5,6,7,8-tetrahydro-1,6-naphthyridine], the Emax at 30 µM turned out to be 106% and the EC50 came to 93 nM.
On to `COCc1c(C)c(N2CCc3ncc(C(F)(F)F)cc3C2)nn2cnnc12` [Compound 350, 6-(8-(Methoxymethyl)-7-methyl-[1,2,4]triazolo[4,3-b]pyridazin-6-yl)-3-(trifluoromethyl)-5,6,7,8-tetrahydro-1,6-naphthyridine], for which the maximal effect (Emax) at 30 µM amounted to 77% and the EC50 stood at 5110 nM.
The like results for `Cc1c(N2CCc3ncc(C(F)(F)F)cc3C2)nn2cnnc2c1C(F)(F)F` [Compound 351, 6-(7-Methyl-8-(trifluoromethyl)-[1,2,4]triazolo[4,3-b]pyridazin-6-yl)-3-(trifluoromethyl)-5,6,7,8-tetrahydro-1,6-naphthyridine] were, in that order, 77% and 1400 nM.
In the same order, the values of `[2H]C1([2H])Cc2ncc(Nc3cc(C)ncc3F)cc2C([2H])([2H])N1c1nn2cnnc2cc1C` [Compound 352, N-(5-fluoro-2-methylpyridin-4-yl)-6-(7-methyl-[1,2,4]triazolo[4,3-b]pyridazin-6-yl)-5,6,7,8-tetrahydro-1,6-naphthyridin-5,5,7,7-d4-3-amine] are 98% and 67 nM.
The like results for `[2H]C1([2H])Cc2ncc(Nc3cc(C)ncc3F)cc2C([2H])([2H])N1c1nn2cnnc2c(C)c1C` [Compound 353, 6-(7,8-dimethyl-[1,2,4]triazolo[4,3-b]pyridazin-6-yl)-N-(5-fluoro-2-methylpyridin-4-yl)-5,6,7,8-tetrahydro-1,6-naphthyridin-5,5,7,7-d4-3-amine] were, in that order, 99% and 22 nM.
On to `[2H]C1([2H])Cc2ncc(Nc3cccnc3C)cc2C([2H])([2H])N1c1nn2cnnc2cc1C` [Compound 354, 6-(7-methyl-[1,2,4]triazolo[4,3-b]pyridazin-6-yl)-N-(2-methylpyridin-3-yl)-5,6,7,8-tetrahydro-1,6-naphthyridin-5,5,7,7-d4-3-amine], for which the Emax at 30 µM is 87% and the EC50 was found to be 355 nM.
For the compound `[2H]C1([2H])Cc2ncc(Nc3ccncc3F)cc2C([2H])([2H])N1c1nn2cnnc2cc1C` [Compound 355, N-(3-Fluoropyridin-4-yl)-6-(7-methyl-1,2,4[triazolo 4,3-b]pyridazin-6-yl)-5,6,7,8-tetrahydro-1,6-naphthyridin-5,5,7,7-d4-3-amine], the Emax at 30 µM is 94% and the EC50 worked out at 14 nM.
For the compound `[2H]C1([2H])Cc2ncc(Nc3ccncc3C)cc2C([2H])([2H])N1c1nn2cnnc2cc1C` [Compound 356, 6-(7-methyl-[1,2,4]triazolo[4,3-b]pyridazin-6-yl)-N-(3-methylpyridin-4-yl)-5,6,7,8-tetrahydro-1,6-naphthyridin-5,5,7,7-d4-3-amine], the Emax at 30 µM came out at 77% and the EC50 was 686 nM.
In the same order, the values of `[2H]C1([2H])Cc2ncc(Nc3ccncc3C)cc2C([2H])([2H])N1c1nn2cnnc2c(C)c1C` [Compound 357, 6-(7,8-dimethyl-[1,2,4]triazolo[4,3-b]pyridazin-6-yl)-N-(3-methylpyridin-4-yl)-5,6,7,8-tetrahydro-1,6-naphthyridin-5,5,7,7-d4-3-amine] are 74% and 168 nM.

Source of the values: patent US20250002507A1, “7,8-DIHYDRO-5H-1,6-NAPHTHYRIDINE DERIVATIVES AS POSITIVE ALLOSTERIC MODULATORS OF THE MUSCARINIC ACETYLCHOLINE RECEPTOR M4 FOR TREATING NEUROLOGICAL AND PSYCHIATRIC DISORDERS” (Vanderbilt University, priority 2021, published 2025).
